In patent US20160074351A1, “DISPENSING SYSTEM” (HZNP Limited, priority 2012, published 2016):

How the values were obtained:
[1] = major diclofenac metabolite; cited from earlier work
[2] = oral diclofenac sodium; cited from earlier work
[3] = in vivo; cited from earlier work
[4] = bacterial reverse mutation, mouse lymphoma point mutation, CHO chromosomal aberration in vitro, in vivo rat bone marrow chromosomal aberration; cited from earlier work
[5] = case report in the literature; cited from earlier work
[6] = system: patients with osteoarthritis; settings: combination vs. oral diclofenac alone
[7] = system: patients; settings: cited from earlier work
[8] = system: rats; settings: cited from earlier work
[9] = system: rats; experiment: Fertility studies of dermally applied DMSO; format: in vivo
Source text: Studies conducted in rats found no effect of dermally applied DMSO on fertility, reproductive performance, or offspring performance.

[10] = system: rhesus monkeys; settings: daily oral or dermal treatment for 9 to 18 months; cited from earlier work
[11] = system: minipigs; experiment: Ocular effects of dermal DMSO, indirect ophthalmoscopy, minipigs; format: in vivo; settings: multiple-daily dermal application for 52 weeks
[12] = system: rabbits, dogs and pigs; settings: dermal or oral administration; published studies; cited from earlier work
[13] = published studies; cited from earlier work
[14] = system: rats; experiment: Ocular effects of dermal DMSO, indirect ophthalmoscopy, rats; format: in vivo; settings: multiple-daily dermal application for 26 weeks
[15] = system: albino mice; settings: daily topical applications for two years at concentrations up to 0.035%; cited from earlier work
[16] = system: hairless mice; settings: topical application at doses up to 0.035%; cited from earlier work
[17] = system: male and female rats; settings: doses up to 4 mg/kg/day (1.4-fold of the MRHD); cited from earlier work
[18] = system: rats; settings: doses up to 10 mg/kg/day (approximately 0.6-fold the MRHD); cited from earlier work
[19] = system: mice; settings: doses up to 20 mg/kg/day (0.6-fold the MRHD), maternal and fetal toxicity induced; cited from earlier work
[20] = system: rabbits; settings: doses up to 10 mg/kg/day (approximately […] the MRHD); cited from earlier work
[21] = system: mice; settings: dietary constituent for 2 years, doses up to 2 mg/kg/day; cited from earlier work
[22] = system: rats; settings: dietary constituent for 2 years, doses up to 2 mg/kg/day; cited from earlier work

Question: With `O=C(O)Cc1ccccc1Nc1c(Cl)cc(O)cc1Cl` [4′-hydroxy-diclofenac] as the compound, how does the pharmacologic activity [1] read?
Answer: very weak pharmacologic activity

Question: What does the source list for `O=C(O)Cc1ccccc1Nc1c(Cl)cccc1Cl` [diclofenac]?
Answer: binding of diclofenac to protein when administered with aspirin [2]: reduced; clearance of free diclofenac when administered with aspirin [2]: not altered; free unchanged diclofenac excreted in the urine [3]: Little or no; mutagenicity / clastogenicity [4]: not mutagenic or clastogenic; detection in breast milk [5]: can be detected at low levels; abnormal creatinine [6]: 7%; abnormal hemoglobin [6]: 9%; abnormal urea [6]: 12%; rate of rectal hemorrhage [6]: less than 1%; patients with marked transaminase elevations whose abnormal tests occurred during the first 2 months of therapy ([7]; all trials): 42 of the 51 patients; borderline (less than 3 times ULN) or greater elevations of transaminases, patients ([7]; clinical trials of indications other than acute pain): about 15%; meaningful elevations of ALT and/or AST, patients ([7]; open-label controlled trial, 3,700 patients treated for 2 to 6 months): about 4%; marked elevations (>8 times the ULN) of ALT and/or AST, patients ([7]; open-label controlled trial, 3,700 patients): about 1%; incidence of borderline, moderate and marked elevations of ALT or AST compared to other NSAIDs ([7]; open-label study): higher incidence; effects of maternal exposure on labor and delivery [8]: increased the incidence of dystocia, delayed parturition, and decreased offspring survival

Question: Which results are given for `C[S+](C)[O-]` [DMSO, dimethyl sulfoxide]?
Answer: fertility, reproductive performance, or offspring performance [9]: no effect; ocular abnormalities [10]: no ocular abnormalities were observed; ocular adverse effects by indirect ophthalmoscopy [11]: No adverse effects were observed; ocular findings by slit-lamp biomicroscopy [12]: refractive changes of lens curvature and cortical fibers indicative of myopic changes and/or incidences of lens opacity or discoloration; potential teratogenicity [13]: equivocal; ocular adverse effects by indirect ophthalmoscopy [14]: No adverse effects were observed

Question: Which neoplasm incidence [15] does the source give for `O=C([O-])Cc1ccccc1Nc1c(Cl)cccc1Cl.[Na+]` [diclofenac sodium] here?
Answer: did not increase neoplasm incidence

Question: And the “time of onset of tumors” value [16]?
Answer: earlier median time of onset of tumors

Question: What about the fertility [17] of the same compound?
Answer: did not affect fertility

Question: What about the teratogenicity [18] of the same compound?
Answer: did not produce teratogenicity

Question: What about the teratogenicity [19] of the same compound?
Answer: did not produce teratogenicity

Question: What about the teratogenicity [20] of the same compound?
Answer: did not produce teratogenicity

Question: And the tumor incidence [21]?
Answer: no significant increases in tumor incidence

Question: And the tumor incidence [22]?
Answer: no significant increases in tumor incidence
